In the supplement of paper PMC10627819:

Columns and labels:
[1] = system: S. aureus Newman; assay: fitness (endpoint OD595 vs no drug) (fraction); higher = more growth; conditions: main component drawn
Summary of the method: (§1)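 Fitness is computed from the optical density at which cultures reach stationary phase, divided by the robust mean of no-drug control wells. Any value above 1 is set to 1. Cultures started at OD595 0.01 in 384-well plates with TSB, LB Lennox or CY at 37 °C, and OD595 was read every 30 min for 14 h against a first-reading background.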

[2] = system: S. aureus DSM 20231; assay: as above
Summary of the method: as §1

[3] = system: B. subtilis 168; assay: Bliss interaction score (quartile over a dose matrix) (fitness difference); higher = more antagonism (negative = synergy)
Summary of the method: (§2)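 Growth was read as OD595 when cultures entered stationary phase, and each value was divided by the plate's robust no-drug mean and capped at 1. This normalised ratio is the fitness value, and fitness for each single drug came from the combination data. The Bliss score subtracts the expected fitness, taken as the product, from the observed fitness and is given as quartiles across technical, biological and donor/recipient replicates.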

[4] = system: S. aureus Newman; assay: as above
Summary of the method: as §2

[5] = system: S. pneumoniae D39V; assay: as above
Summary of the method: as §2

[6] = system: S. aureus DSM 20231; assay: as above
Summary of the method: as §2

[7] = system: B. subtilis 168; assay: fitness (endpoint OD595 vs no drug) (fraction); higher = more growth
Summary of the method: as §1
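Wherever Bliss interaction score (quartile over a dose matrix) is given: first quartile when negative (synergy) and third quartile when positive (antagonism).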
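Wherever fitness (endpoint OD595 vs no drug) is given: OD595 on entry to stationary phase over no-drug wells; at most 1.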

C[n+]1ccc(-c2cc[n+](C)cc2)cc1 [Paraquat] + CCCCCCCCCC(=O)N[C@@H]1[C@H]([C@@H]([C@H](O[C@H]1OC2=C3C=C4C=C2OC5=C(C=C(C=C5)[C@H]([C@H]6C(=O)N[C@@H](C7=C(C(=CC(=C7)O)OC8[C@H]([C@H]([C@@H]([C@H](O8)CO)O)O)O)C9=C(C=CC(=C9)[C@H](C(=O)N6)NC(=O)[C@@H]4NC(=O)[C@@H]1C2=CC(=CC(=C2)OC2=C(C=CC(=C2)[C@H](C(=O)N[C@H](CC2=CC(=C(O3)C=C2)Cl)C(=O)N1)N)O)O)O)C(=O)O)O[C@H]1[C@@H]([C@H]([C@@H]([C@H](O1)CO)O)O)NC(=O)C)Cl)CO)O)O [Teicoplanin]
fitness, [1]
Conditions | first compound 1.25 µg/mL | first compound 2.5 µg/mL | first compound 5 µg/mL
partner 0.1562 µg/mL | ≥ 1 | ≥ 1 | ≥ 1
partner 0.3125 µg/mL | ≥ 1 | 0.98 | 0.962
partner 0.625 µg/mL | 0.912 | 0.87 | 0.846

fitness
Conditions | first compound 1.25 µg/mL | first compound 2.5 µg/mL | first compound 5 µg/mL
[1], partner 0.62 µg/mL, one replicate | 0.795 | 0.782 | 0.775
[1], partner 1.24 µg/mL, one replicate | 0.737 | 0.745 | 0.761
[1], partner 2.48 µg/mL, one replicate | 0.336 | 0.402 | 0.117
[2], partner 0.1562 µg/mL, main component drawn | 0.957 | 0.954 | 0.967
[2], partner 0.3125 µg/mL, main component drawn | 0.99 | ≥ 1 | ≥ 1
[2], partner 0.625 µg/mL, main component drawn | ≥ 1 | ≥ 1 | ≥ 1

main component drawn
Conditions | Bliss interaction score
[3] | -0.044
[4] | 0.0904
[5] | 0.0634
[6] | 0.0665

CN(N=O)C(=O)N[C@@H](C=O)[C@@H](O)[C@H](O)[C@H](O)CO [Streptozotocin] + COc1cc(Cc2cnc(N)nc2N)cc(OC)c1OC [Trimethoprim]
fitness, one replicate
Conditions | first compound 0.15 µg/mL | first compound 0.3 µg/mL | first compound 0.6 µg/mL
[2], partner 0.125 µg/mL | 0.645 | 0.666 | 0.602
[7], partner 0.1 µg/mL | 0.903 | 0.871 | 0.9
[7], partner 0.125 µg/mL | 0.748 | 0.728 | 0.731
[7], partner 0.2 µg/mL | 0.758 | 0.703 | 0.805
[7], partner 0.4 µg/mL | 0.523 | 0.536 | 0.521

fitness
Conditions | first compound 0.15 µg/mL | first compound 0.3 µg/mL | first compound 0.6 µg/mL
[2], partner 0.25 µg/mL | 0.549 | 0.557 | 0.493
[2], partner 0.5 µg/mL | 0.0352 | 0.0171 | 0.0159
[2], partner 1 µg/mL | 0.0265 | 0.0265 | 0.0187
[7], partner 0.5 µg/mL | 0.51 | 0.496 | 0.501

Conditions | Bliss interaction score
[3] | 0.062
[4] | -0.12
[5] | -0.125
[6] | -0.0675

CN(N=O)C(=O)N[C@@H](C=O)[C@@H](O)[C@H](O)[C@H](O)CO [Streptozotocin] + CCCCCCCCCC(=O)N[C@@H]1[C@H]([C@@H]([C@H](O[C@H]1OC2=C3C=C4C=C2OC5=C(C=C(C=C5)[C@H]([C@H]6C(=O)N[C@@H](C7=C(C(=CC(=C7)O)OC8[C@H]([C@H]([C@@H]([C@H](O8)CO)O)O)O)C9=C(C=CC(=C9)[C@H](C(=O)N6)NC(=O)[C@@H]4NC(=O)[C@@H]1C2=CC(=CC(=C2)OC2=C(C=CC(=C2)[C@H](C(=O)N[C@H](CC2=CC(=C(O3)C=C2)Cl)C(=O)N1)N)O)O)O)C(=O)O)O[C@H]1[C@@H]([C@H]([C@@H]([C@H](O1)CO)O)O)NC(=O)C)Cl)CO)O)O [Teicoplanin]
fitness, [1]
Conditions | first compound 0.15 µg/mL | first compound 0.3 µg/mL | first compound 0.6 µg/mL
partner 0.1562 µg/mL | 0.874 | 0.724 | 0.493
partner 0.3125 µg/mL | 0.762 | 0.656 | 0.368
partner 0.625 µg/mL | 0.632 | 0.534 | 0.177

fitness
Conditions | first compound 0.15 µg/mL | first compound 0.3 µg/mL | first compound 0.6 µg/mL
[1], partner 0.62 µg/mL, one replicate | 0.661 | 0.47 | 0.181
[1], partner 1.24 µg/mL, one replicate | 0.578 | 0.259 | 0.0236
[1], partner 2.48 µg/mL, one replicate | 0.363 | 0.0725 | 0.055
[2], partner 0.1562 µg/mL, main component drawn | 0.801 | 0.799 | 0.66
[2], partner 0.3125 µg/mL, main component drawn | 0.935 | 0.91 | 0.713
[2], partner 0.625 µg/mL, main component drawn | ≥ 1 | 0.937 | 0.787

main component drawn
Conditions | Bliss interaction score
[3] | 0.154
[4] | -0.166
[5] | -0.0829
[6] | 0.097

Cc1onc(-c2ccccc2)c1C(=O)N[C@@H]1C(=O)N2[C@@H]1SC(C)(C)[C@@H]2C(=O)O [Oxacillin] + COc1cc(Cc2cnc(N)nc2N)cc(OC)c1OC [Trimethoprim]
fitness
Conditions | partner 0.25 µg/mL | partner 0.5 µg/mL | partner 1 µg/mL
[2], first compound 0.0156 µg/mL | 0.561 | 0.129 | 0.0621
[2], first compound 0.0312 µg/mL | 0.559 | 0.147 | 0.0523
[2], first compound 0.0625 µg/mL | 0.438 | 0.0674 | 0.0399
[7], first compound 0.002 µg/mL | – | 0.46 | –
[7], first compound 0.004 µg/mL | – | 0.475 | –
[7], first compound 0.008 µg/mL | – | 0.467 | –
[7], first compound 0.031 µg/mL | – | 0.384 | –

one replicate
Conditions | fitness
[2], first compound 0.0156 µg/mL, partner 0.125 µg/mL | 0.558
[2], first compound 0.0312 µg/mL, partner 0.125 µg/mL | 0.523
[2], first compound 0.0625 µg/mL, partner 0.125 µg/mL | 0.477
[7], first compound 0.002 µg/mL, partner 1 µg/mL | 0.498
[7], first compound 0.002 µg/mL, partner 2 µg/mL | 0.37
[7], first compound 0.004 µg/mL, partner 1 µg/mL | 0.418
[7], first compound 0.004 µg/mL, partner 2 µg/mL | 0.257
[7], first compound 0.0078 µg/mL, partner 0.1 µg/mL | 0.898
[7], first compound 0.0078 µg/mL, partner 0.125 µg/mL | 0.385
[7], first compound 0.0078 µg/mL, partner 0.2 µg/mL | 0.804
[7], first compound 0.0078 µg/mL, partner 0.4 µg/mL | 0.578
[7], first compound 0.008 µg/mL, partner 1 µg/mL | 0.351
[7], first compound 0.008 µg/mL, partner 2 µg/mL | 0.304
[7], first compound 0.0155 µg/mL, partner 0.1 µg/mL | 0.839
[7], first compound 0.0155 µg/mL, partner 0.125 µg/mL | 0.363
[7], first compound 0.0155 µg/mL, partner 0.2 µg/mL | 0.802
[7], first compound 0.0155 µg/mL, partner 0.4 µg/mL | 0.599
[7], first compound 0.031 µg/mL, partner 0.1 µg/mL | 0.882
[7], first compound 0.031 µg/mL, partner 0.125 µg/mL | 0.352
[7], first compound 0.031 µg/mL, partner 0.2 µg/mL | 0.763
[7], first compound 0.031 µg/mL, partner 0.4 µg/mL | 0.536
[7], first compound 0.075 µg/mL, partner 0.125 µg/mL | 0.0694
[7], first compound 0.075 µg/mL, partner 0.25 µg/mL | 0.0331
[7], first compound 0.075 µg/mL, partner 0.5 µg/mL | 0.026
[7], first compound 0.15 µg/mL, partner 0.125 µg/mL | 0.0313
[7], first compound 0.15 µg/mL, partner 0.25 µg/mL | 0.0424
[7], first compound 0.15 µg/mL, partner 0.5 µg/mL | 0.0705
[7], first compound 0.3 µg/mL, partner 0.125 µg/mL | 0.0436
[7], first compound 0.3 µg/mL, partner 0.25 µg/mL | 0.0503
[7], first compound 0.3 µg/mL, partner 0.5 µg/mL | 0.0489

Conditions | Bliss interaction score
[3] | 0.0589
[4] | -0.0935
[5] | 0.164
[6] | 0.0401

C[n+]1ccc(-c2cc[n+](C)cc2)cc1 [Paraquat] + COc1cc(Cc2cnc(N)nc2N)cc(OC)c1OC [Trimethoprim]
fitness, [7], one replicate
Conditions | partner 0.1 µg/mL | partner 0.125 µg/mL | partner 0.2 µg/mL | partner 0.4 µg/mL | partner 1 µg/mL | partner 2 µg/mL
first compound 1.25 µg/mL | 0.944 | 0.737 | 0.744 | 0.526 | 0.309 | 0.332
first compound 2.5 µg/mL | 0.947 | 0.734 | 0.66 | 0.459 | 0.396 | 0.237
first compound 5 µg/mL | 0.873 | 0.626 | 0.642 | 0.358 | 0.068 | 0.0488

fitness
Conditions | first compound 1.25 µg/mL | first compound 2.5 µg/mL | first compound 5 µg/mL
[2], partner 0.125 µg/mL | 0.715 | 0.741 | 0.68
[2], partner 0.25 µg/mL | 0.602 | 0.606 | 0.604
[2], partner 1 µg/mL | 0.0458 | 0.0312 | 0.0357
[7], partner 0.25 µg/mL | 0.683 | 0.604 | –
[7], partner 0.5 µg/mL | 0.385 | – | 0.298

Conditions | Bliss interaction score
[3] | -0.0973
[4] | -0.0902
[5] | 0.0991
[6] | 0.0513

CC[C@H]1OC(=O)[C@H](C)[C@@H](O[C@H]2C[C@@](C)(OC)[C@@H](O)[C@H](C)O2)[C@H](C)[C@@H](O[C@@H]2O[C@H](C)C[C@H](N(C)C)[C@H]2O)[C@](C)(O)C[C@@H](C)CN(C)[C@H](C)[C@@H](O)[C@]1(C)O [Azithromycin] + CCC[C@@H]1C[C@@H](C(=O)N[C@@H]([C@H]2O[C@H](SC)[C@H](O)[C@@H](O)[C@H]2O)[C@@H](C)O)N(C)C1 [Lincomycin]
fitness
Conditions | partner 0.1 µg/mL | partner 0.2 µg/mL | partner 0.4 µg/mL | partner 0.8 µg/mL | partner 1.6 µg/mL
[2], first compound 0.125 µg/mL | 0.873 | 0.754 | – | – | –
[2], first compound 0.25 µg/mL | 0.89 | 0.583 | – | – | –
[2], first compound 0.5 µg/mL | 0.386 | 0.147 | 0.106 | – | –
[7], first compound 0.25 µg/mL | 0.777 | 0.78 | 0.833 | 0.865 | 0.887
[7], first compound 0.5 µg/mL | 0.82 | 0.817 | 0.876 | 0.797 | 0.77
[7], first compound 1 µg/mL | 0.714 | 0.734 | – | – | –

[7], first compound 2 µg/mL, one replicate
Conditions | fitness
partner 0.1 µg/mL | 0.401
partner 0.2 µg/mL | 0.24
partner 0.4 µg/mL | 0.202

Conditions | Bliss interaction score
[3] | 0.098
[4] | -0.105
[5] | 0.0603
[6] | -0.0854
